How the values were obtained:
Assay type in all cases: in vivo
Veronica persica [1] = assay: Pre-emergence herbicidal effect; settings: 320 g/ha, visual score after 3 weeks
Source text: (§1) Seeds of monocotyledonous and dicotyledonous weed plants and crop plants are laid out in wood-fibre pots in sandy loam and covered with soil. The compounds according to the invention formulated in the form of wettable powders (WP) or as emulsion concentrates (EC) are then applied as aqueous suspension or emulsion at a water application rate of 600 to 800 l/ha (converted) with the addition of 0.2% wetting agent to the surface of the covering soil. After the treatment, the pots are placed in a greenhouse and kept under good growth conditions for the trial plants. The damage to the test plants is scored visually after a test period of 3 weeks by comparison with untreated controls (herbicidal activity in percent (%): 100% activity=the plants have died, 0% activity=like control plants).

Lolium multiflorum [2] = assay: Pre-emergence herbicidal effect; settings: visual score after 3 weeks
Source text: as §1

Amaranthus retroflexus = assay: Pre-emergence herbicidal effect; settings: 320 g/ha, visual score after 3 weeks
Source text: as §1

Setaria viridis [3] = assay: Pre-emergence herbicidal effect; settings: visual score after 3 weeks
Source text: as §1

Alopecurus myosuroides [4] = assay: Pre-emergence herbicidal effect; settings: visual score after 3 weeks
Source text: as §1

Echinochloa crus-galli [5] = assay: Pre-emergence herbicidal effect; settings: visual score after 3 weeks
Source text: as §1

Cyperus esculentus = assay: Pre-emergence herbicidal effect; settings: visual score after 3 weeks
Source text: as §1

Avena fatua [6] = assay: Pre-emergence herbicidal effect; settings: visual score after 3 weeks
Source text: as §1

Lolium multiflorum [7] = assay: Post-emergence herbicidal effect; settings: visual assessment after about 3 weeks
Procedure: (§2) Seeds of monocotyledonous and dicotyledonous weed and crop plants are laid out in sandy loam in wood-fibre pots, covered with soil and cultivated in a greenhouse under good growth conditions. 2 to 3 weeks after sowing, the test plants are treated at the one-leaf stage. The compounds according to the invention, formulated in the form of wettable powders (WP) or as emulsion concentrates (EC), are then sprayed as aqueous suspension or emulsion at a water application rate of 600 to 800 l/ha (converted) with the addition of 0.2% of wetting agent onto the green parts of the plants. After the test plants have been left to stand in the greenhouse under optimal growth conditions for about 3 weeks, the action of the preparations is assessed visually in comparison to untreated controls (herbicidal action in percent (%): 100% activity=the plants have died, 0% activity=like control plants).

Setaria viridis [8] = assay: Post-emergence herbicidal effect; settings: visual assessment after about 3 weeks
Procedure: as §2

Alopecurus myosuroides [9] = assay: Post-emergence herbicidal effect; settings: for Post-emergence effectiveness ALOMY: visual assessment after about 3 weeks
Procedure: as §2

Echinochloa crus-galli [10] = assay: Post-emergence herbicidal effect; settings: visual assessment after about 3 weeks
Procedure: as §2

Avena fatua [11] = assay: Post-emergence herbicidal effect; settings: for Post-emergence effectiveness AVEFA: visual assessment after about 3 weeks
Procedure: as §2

Polygonum convolvulus = assay: Post-emergence herbicidal effect; settings: 80 g/ha, visual assessment after about 3 weeks
Procedure: as §2

Viola tricolor = assay: Pre-emergence herbicidal effect; settings: 320 g/ha, visual score after 3 weeks
Source text: as §1

PHBPU = assay: Post-emergence herbicidal effect; settings: 20 g a.i./ha
Procedure: as §2

Veronica persica [12] = assay: Post-emergence herbicidal effect; settings: 80 g/ha, visual assessment after about 3 weeks
Procedure: as §2

Row | Compound | Pre-emergence effectiveness VERPE (Veronica persica [1]) [%] | Pre-emergence effectiveness LOLMU (Lolium multiflorum [2]; 80 g/ha) [%] | Pre-emergence effectiveness LOLMU (Lolium multiflorum [2]; 320 g/ha) [%] | Pre-emergence effectiveness SETVI (Setaria viridis [3]; 80 g/ha) [%] | Pre-emergence effectiveness SETVI (Setaria viridis [3]; 320 g/ha) [%] | Pre-emergence effectiveness ALOMY (Alopecurus myosuroides [4]; 80 g/ha) [%] | Pre-emergence effectiveness ALOMY (Alopecurus myosuroides [4]; 320 g/ha) [%] | Pre-emergence effectiveness ECHCG (Echinochloa crus-galli [5]; 80 g/ha) [%] | Pre-emergence effectiveness ECHCG (Echinochloa crus-galli [5]; 320 g/ha) [%] | Pre-emergence effectiveness CYPES (Cyperus esculentus; 320 g/ha) [%] | Pre-emergence effectiveness AVEFA (Avena fatua [6]; 80 g/ha) [%] | Pre-emergence effectiveness AVEFA (Avena fatua [6]; 320 g/ha) [%] | Post-emergence effectiveness LOLMU (Lolium multiflorum [7]; 20 g/ha) [%] | Post-emergence effectiveness LOLMU (Lolium multiflorum [7]; 80 g/ha) [%] | Post-emergence effectiveness SETVI (Setaria viridis [8]; 20 g/ha) [%] | Post-emergence effectiveness SETVI (Setaria viridis [8]; 80 g/ha) [%] | Post-emergence effectiveness ALOMY (Alopecurus myosuroides [9]; 20 g/ha) [%] | Post-emergence effectiveness ALOMY (Alopecurus myosuroides [9]; 80 g/ha) [%] | Post-emergence effectiveness ECHCG (Echinochloa crus-galli [10]; 20 g/ha) [%] | Post-emergence effectiveness ECHCG (Echinochloa crus-galli [10]; 80 g/ha) [%] | also measured
1 | CC#Cc1cc(CC)c(C2=C(OC(=O)C(C)C)C3(CCC(CCOC)CC3)NC2=O)c(CC)c1 (stereo not drawn) [Example Ia-5] | 100 | 100 | 100 | 100 | 100 | 100 | 100 | 100 | 100 | 100 | 80 | 100 | – | – | – | – | – | – | – | – | Pre-emergence effectiveness AMARE (Amaranthus retroflexus): 100%; Pre-emergence effectiveness CYPES (Cyperus esculentus; 80 g/ha): 100%
2 | CCc1cc(C#CC2CC2)cc(C)c1C1=C(O)C2(CCC(COC)CC2)NC1=O (stereo not drawn) [Example I-7] | – | 100 | 100 | 90 | 100 | 80 | 100 | 100 | 100 | – | – | – | 90 | 100 | 100 | 100 | 90 | 100 | 100 | 100 | Post-emergence effectiveness AVEFA (Avena fatua [11]; 80 g/ha): 100%; Post-emergence effectiveness POLCO (Polygonum convolvulus): 80%
3 | CC#Cc1cc(C)c(C2=C(OC(=O)C(C)C)C3(CCC(CCOC)CC3)NC2=O)c(CC)c1 (stereo not drawn) [Ia-4] | 90 | – | 90 | 100 | 100 | – | 80 | 100 | 100 | – | – | – | – | – | – | – | – | – | – | – | Pre-emergence effectiveness VIOTR (Viola tricolor): 100%
4 | CC#Cc1cc(C)c(C2=C(O)C3(CCC(COC)CC3)NC2=O)c(CC)c1 (stereo not drawn) [Example I-5] | 80 | 100 | 100 | 100 | 100 | 100 | 100 | 100 | 100 | 100 | 100 | 100 | 90 | 100 | 90 | 100 | 90 | 100 | 100 | 100 | Comparison data for post-emergence effect PHBPU (PHBPU): 30%; Comparison data for post-emergence effect ALOMY (Alopecurus myosuroides [9]; 20 g a.i./ha): 90%; Comparison data for post-emergence effect AVEFA (Avena fatua [11]; 20 g a.i./ha): 90%; Post-emergence effectiveness AVEFA (Avena fatua [11]; 20 g/ha): 90%; Post-emergence effectiveness AVEFA (Avena fatua [11]; 80 g/ha): 100%
5 | CC#Cc1cc(C)c(C2=C(OC(=O)C(C)C)C3(CCC(COC)CC3)NC2=O)c(CC)c1 (stereo not drawn) [Ia-3] | 90 | 100 | 100 | 100 | 100 | 90 | 100 | 100 | 100 | – | 80 | 90 | – | 100 | 90 | 100 | 90 | 100 | 90 | 100 | Post-emergence action VERPE (Veronica persica [12]): 90%

Source: patent US10899709B2, “Novel-alkynyl-substituted 3-phenylpyrrolidine-2,4-diones and use thereof as herbicides” (BAYER CROPSCIENCE AKTIENGESELLSCHAFT, priority 2015, dated 2021)
